# Values joined by “and” are separate entries in the source; they are usually repeats but may differ in a detail not shown here. Equal entries are not always repeated. Where two headings read alike, the source gives them in different places.
# Tested on: L. major lysate proteins
# Test: Multitargeted bead mixture chemoproteomics, single concentration competition, proteome-wide
# Type: binding
smiles,measurement,setting,value
NCCCNc1ccc(C(=O)NC(CCC(=O)O)C(=O)O)cc1 (stereo not drawn) [compound 7],fold change,,0.99
same,fold change relative to vehicle control,,1.03 and 1.04
same,fold change vs vehicle control,,1.19 and 1.04 and 1.12
same,"protein inhibition, any captured protein (Figure 8)","bead mixture, L. major lysate",no protein inhibition >30%
same,fold change vs vehicle control,protein CLI00016468.1 KINETOPLASTID MEMBRANE PROTEIN-11,0.73
same,fold change vs vehicle control,"protein LINJ.03.0240 RIBOSOMAL PROTEIN L38, PUTATIVE",1.02
same,fold change vs vehicle control,"protein LINJ.11.0780 40S RIBOSOMAL PROTEIN S21, PUTATIVE",1.05
same,fold change,"protein LINJ.11.0960 40S RIBOSOMAL PROTEIN S5, vehicle control = 1",0.98
same,fold change vs vehicle control,"protein LINJ.13.0990 […] SUBUNIT 2, PUTATIVE",1.26
same,fold change vs vehicle control,"protein LINJ.15.0330 RIBONUCLEOPROTEIN P18, MITOCHONDRIAL PRECURSOR, PUTATIVE",0.97
same,fold change,"protein LINJ.19.0090 FIBRILLARIN, PUTATIVE, vehicle control = 1",1.04
same,fold change relative to vehicle control,"protein LINJ.23.0860, 3-KETOACYL-COA THIOLASE, PUTATIVE",1.02
same,fold change relative to vehicle control,"protein LINJ.24.2300, 60S RIBOSOMAL PROTEIN L12, PUTATIVE",1.04
same,fold change vs vehicle control,"protein LINJ.25.2230 SUCCINYL-COA SYNTHETASE ALPHA SUBUNIT, PUTATIVE",0.97
same,fold change vs vehicle control,"protein LINJ.26.1630 40S RIBOSOMAL PROTEIN S33, PUTATIVE",1.04
same,fold change vs vehicle control,"protein LINJ.28.1100 RIBOSOMAL PROTEIN S20, PUTATIVE",1.02
same,fold change relative to vehicle control,"protein LINJ.28.1940, REPLICATION FACTOR A, 51KDA SUBUNIT, PUTATIVE",1.1
same,fold change,"protein LINJ.28.2280 DYNEIN LIGHT CHAIN LC6, FLAGELLAR OUTER ARM, PUTATIVE, vehicle control = 1",0.9
same,fold change,"protein LINJ.28.2870 PROTEIN PHOSPHATASE 4 CATALYTIC SUBUNIT, PUTATIVE, vehicle control = 1",0.91
same,fold change relative to vehicle control,"protein LINJ.31.1600, […] OXIDASE VIII (COX VIII), PUTATIVE",1.19
same,fold change relative to vehicle control,"protein LINJ.33.1730, CYCLOPHILIN 4, PUTATIVE",1.08
same,fold change vs vehicle control,"protein LINJ.34.0670 PROTEASOME REGULATORY NON-ATP-ASE SUBUNIT 11, PUTATIVE,19S PROTEASOME REGULATORY SUBUNIT",0.97
same,fold change vs vehicle control,"protein LINJ.36.0780 PROTEIN KINASE, PUTATIVE,MITOGEN-ACTIVATED PROTEIN KINASE, PUTATIVE",1.26
same,fold change relative to vehicle control,"protein LINJ.36.3960, BASIC TRANSCRIPTION FACTOR 3A, PUTATIVE",1.58
same,fold change relative to vehicle control,"protein LINJ.36.4080, HY[…], CONSERVED",1.32
same,fold change,"protein LINJ.36.4180 HS1VU COMPLEX PROTEOLYTIC SUBUNIT-LIKE, vehicle control = 1",0.93
same,fold change vs vehicle control,"protein LINJ.[…] LONG-CHAIN-FATTY-ACID-COA LIGASE, PUTATIVE",0.9
same,fold change,"protein LMJF.01.0570 TRIC[…], PUTATIVE, vehicle control = 1",0.92
same,fold change relative to vehicle control,"protein LMJF.03.0200, DELTA-1-PYRROLINE-5-CARBOXYLATE DEHYDROGENASE, PUTATIVE",1.07
same,fold change,"protein LMJF.03.0230 LONG CHAIN FATTY ACYL COA SYNTHETASE, PUTATIVE, vehicle control = 1",1
same,fold change,"protein LMJF.03.0980 […] 2 ALPHA SUBUNIT, PUTATIVE, vehicle control = 1",1.01
same,fold change vs vehicle control,"protein LMJF.04.0630 HY[…], CONSERVED",1.07
same,fold change vs vehicle control,protein LMJF.04.1230 actin,1.04
same,fold change,"protein LMJF.05.0100 PHOSPHOPROTEIN PHOSPHATASE, PUTATIVE, vehicle control = 1",0.91
same,fold change,"protein LMJF.05.0280 PROTEIN TYROSINE PHOSPHATASE, PUTATIVE, vehicle control = 1",0.99
same,fold change,"protein LMJF.05.0510 ATPASE ALPHA SUBUNIT, vehicle control = 1",1.08
same,fold change,"protein LMJF.05.1040 STOMATIN-LIKE PROTEIN, vehicle control = 1",0.92
same,fold change,"protein LMJF.06.0650 LANOSTEROL SYNTHASE, PUTATIVE, vehicle control = 1",0.95
same,fold change vs vehicle control,protein LMJF.07.0700 TOPOISOMERASE-RELATED FUNCTION PROTEIN-LIKE PROTEIN,1.1
same,fold change,"protein LMJF.07.1000 RNA BINDING PROTEIN-LIKE PROTEIN, vehicle control = 1",0.88
same,fold change relative to vehicle control,"protein LMJF.07.1140, PEPTIDE […] REDUCTASE-LIKE",1.06
same,fold change,"protein LMJF.08.0510 RIBOSE-PHOSPHATE PYROPHOSPHOKINASE, PUTATIVE, vehicle control = 1",0.91
same,fold change vs vehicle control,protein LMJF.08.0550 TRANSLATION INITIATION FACTOR-LIKE PROTEIN,0.9
same,fold change relative to vehicle control,"protein LMJF.08.1030, cathepsin L-like protease",1.03
same,fold change vs vehicle control,"protein LMJF.08.1100 HYPOTHETICAL PROTEIN, CONSERVED",0.98
same,fold change vs vehicle control,"protein LMJF.09.1010 HYPOTHETICAL PROTEIN, CONSERVED",0.75
same,fold change relative to vehicle control,"protein LMJF.09.1120, MIT[…] BINDING PROTEIN 2,MRP2, GBP25",1.14
same,fold change vs vehicle control,"protein LMJF.09.1260 HYPOTHETICAL PROTEIN, CONSERVED",0.95
same,fold change,"protein LMJF.10.0210 NUCLEOLAR PROTEIN, PUTATIVE, vehicle control = 1",1.01
same,fold change vs vehicle control,"protein LMJF.10.0310 PROTEIN TRANSPORT PROTEIN SEC23, PUTATIVE",1.31
same,fold change,"protein LMJF.11.0590 3-[…]-COA C[…] SUBUNIT, PUTATIVE, vehicle control = 1",1
same,fold change relative to vehicle control,"protein LMJF.11.0630, AMINOPEPTIDASE, PUTATIVE,METALLO-PEPTIDASE, CLAN MF, FAMILY M17",0.94
same,fold change vs vehicle control,"protein LMJF.11.1050 PRETRA[…], ALPHA SUBUNIT, PUTATIVE,SEC61-LIKE (PRETRA[…]) PROTEIN, PUTATIVE",1.07
same,fold change,"protein LMJF.11.1160 PROTEIN TRANSPORT PROTEIN SEC31, PUTATIVE, vehicle control = 1",1.26
same,fold change,"protein LMJF.12.0030 PROTEASOME BETA-1 SUBUNIT, PUTATIVE, vehicle control = 1",0.94
same,fold change vs vehicle control,"protein LMJF.12.0210 […] […]1L8 3, PUTATIVE",0.95
same,fold change relative to vehicle control,"protein LMJF.12.0530, GLUCOSE-6-PHOSPHATE ISOMERASE",1.09
same,fold change,"protein LMJF.12.0630 ALANINE AMINOTRANSFERASE, vehicle control = 1",0.93
same,fold change vs vehicle control,"protein LMJF.13.1230 40S RIBOSOMAL PROTEIN S4, PUTATIVE",1.05
same,fold change vs vehicle control,"protein LMJF.14.0310 PROTEASOME ALPHA 3 SUBUNIT, PUTATIVE",0.96
same,fold change,"protein LMJF.14.0660 FATTY ACID ELONGASE, PUTATIVE, vehicle control = 1",1.02
same,fold change,"protein LMJF.14.0670 FATTY ACID ELONGASE, PUTATIVE, vehicle control = 1",0.94
same,fold change vs vehicle control,"protein LMJF.14.0680 FATTY ACID ELONGASE, PUTATIVE",1.14
same,fold change,"protein LMJF.14.0990 ADP/ATP MIT[…]-LIKE PROTEIN, vehicle control = 1",1.25
same,fold change vs vehicle control,protein LMJF.14.1160 ENOLASE,1.02
same,fold change,"protein LMJF.14.1440 HYPOTHETICAL PROTEIN, CONSERVED (cytoskeleton associated protein, putative), vehicle control = 1",0.82
